Test [1] relates to PEO-1. The test is described as follows: Cytotoxic effect of compound 8 in combination with Cisplatin in PEO-1. It counts as cell-based, human. The settings on record: PEO-1, 72 h; IC50 of cisplatin alone or with C8 fixed at 44 μM; read-out: IC50 (μM ± SEM). How it is done:
Cisplatin (Sigma-Aldrich, St. […] The luminescence signal was read at the instrument […]). […] Parallelly, the single curves of Cisplatin and compound 8 were performed. […] Pharmacol Rev. 2006; 58:621-81).

Test [2] deals with T1, NEK6 (Homo sapiens, UniProt Q9HC98). Put plainly: LANCE-Ultra NEK6 kinase assay. The test is classed as biochemical. The settings on record: for IC50: LANCE-Ultra, 4 nM NEK6, 50 nM ULight-p70 S6K peptide, 100 μM ATP, 90 min, average of 4 experiments ± SEM, read-out: IC50 of NEK6 activity inhibition; for NEK6 activity inhibition in screening: single concentration 30 μM, FIG. 1. How it is done: FIG. 1. NEK6 activity inhibition. Bar graph representing the results of the screening of several compounds at 30 μM by using LANCE-Ultra NEK6 kinase assay (PerkinElmer) incubated with 4 nM NEK6, 50 nM ULight-p70 S6K Peptide and 100 μM ATP for 90 minutes at room temperature. As control inhibitor quercetin was used.
FIG. 2. FIG. 2 represents the molecules identified with inhibitory activity on NEK6 by using LANCE-Ultra NEK6 kinase assay (PerkinElmer). The curves represent the % of NEK6 activity depending upon the inhibitor concentration. A) The compound 8 (ZINC05007751) is capable of inhibiting the NEK6 activity with 1050=3.4±1.2 μM; B) the compound 21 (ZINC04384801) inhibits NEK6 at 1050=2.6±0.05 μM. The IC50 value derives from the average of IC50s of 4 independent experiments±SEM. Each point of the curve represents the average of a triplicate±SEM of a representative experiment.
The compounds in powder (Molport, Riga, LV-1011, Latvia) were dissolved in DMSO 100% at a stock concentration of 10 mM. The fresh compounds were tested initially at a single concentration (30 μM) with LANCE NEK6 Ultra Kinase Assays (Perkin Elmer, Monza (MB)), whereas the remaining solution was aliquoted, kept at −20° C. and used for the enzymatic inhibition curves of the selected compounds. The reaction was performed in 384-OptiPlate™-384 (PerkinElmer #6007290) white plates, by using as reagents the Europium-labeled anti-phospho-p70 S6K (Thr389) Antibody (PerkinElmer #TRF0214), ULight-p70 S6K (Thr389) (PerkinElmer #TRF0126), NEK6 (Carna, Chuo-ku, Kobe, Japan, #05-130), LANCE® Detection Buffer, 10×(PerkinElmer #CR97-100), ATP (Sigma-Aldrich, Saint Louis, U.S.A, #A2383). NEK6, ATP and the compounds were diluted in Kinase Buffer (50 mM HEPES pH 7.5, 1 mM EGTA, 10 mM MgCl2, 2 mM DTT and 0.01% Tween-20), and where necessary DMSO was added to obtain a concentration of 0.3% in the final reaction volume. For the initial screening the compounds were tested at the final concentration of 30 μM, final DMSO 0.3% in kinase buffer and incubated with 4 nM NEK6, 50 nM ULight-p70 S6K Peptide and 100 μM ATP, in a reaction volume of 10 μL for 90 minutes at room temperature. As control inhibitor quercetin (Molport #001-740-557) was used. For the enzymatic inhibition curves, the selected compounds C8 (Molport #002-933-483), C21 (Molport #000-911-820) were diluted serially (dilutions 1:2) from 30 μM to 0.9375 μM (final concentrations: 30 μM; 15 μM; 7.5 μM; 3.75; 1.875 μM; 0.9375 μM in 0.3% DMSO) and incubated under the same conditions. […] After the film removal, the signal was read at the Enspire (PerkinElmer) plate reader (excitation 320 nm and emission at 665 nm). The % of enzymatic activity of NEK6 was calculated with respect to the control (100% activity), after subtracting the white of the experiment.
On the technique in general: In TR-FRET formats the signal depends on donor and acceptor labels being close together.

For test [3], the target named is T1, NEK6. The test is described as follows: Off-chip Mobility Shift Assay (MSA). It counts as biochemical. The settings on record: CDK7 peptide 1000 nM, 5 h. How it is done: The inhibitory activity on NEK6 of the compounds C8 and C21 was checked with the technique of Off-chip Mobility Shift Assay (MSA) (CARNA Biosciences Study ID: CBS170097, CARNA Biosciences, Kobe). […] PKR inhibitor was used as positive control. […] of solution 4× of the compounds, […] of 4× Substrate/ATP/Metal solution, and […] of 2× kinase solution were prepared with the reaction buffer (20 mM HEPES, 0.01% Triton X-100, 1 mM DTT, pH7.5), mixed and incubated in wells of polypropylene in 384-well plate for 5 hours at room temperature. Afterwards, […] of Termination Buffer (QuickScout Screening Assist MSA; Carna Biosciences) were added. One proceeded with analysing the reaction with LabChip system (Perkin Elmer), by separating and quantizing the peaks of product and substrate. The kinase reaction was then evaluated based upon the ratio (P/(P+S)) calculated based upon the heights of peak of peptides product (P) and substrate (S). The reading value of the control reaction (complete reaction mix) was placed as 0% of inhibition and the bottom value (Enzima (−)) was placed as 100% of inhibition, then the inhibition percentage of each sample was calculated. The value of IC50 was calculated by means of a logistic model at 4 parameters of the inhibition curves by adaptation to a four-parameter logistic curve.

The next test has as its system MDA-MB-231. Put plainly: Cytotoxicity (ATPlite, 72 h) on MDA-MB-231. The test is classed as cell-based, human. The settings on record: MDA-MB-231 (breast), read-out: IC50 values (μM ± SEM). How it is done:
(§1) The compounds C8 and C21 identified in the previous assay of enzymatic activity were tested on 8 tumour cell lines representative of different solid tumours: MDA-MB231 and MCF7 (mammary tumour; ATCC, LGC Standards S.r.L, Sesto San Giovanni, MI), PEO1 and COV318 (ovarian tumour; ECACC, Saltssbury, UK), HCT-15 and SW948 (colon tumour; ECAC and ATCC, Sesto San Giovanni, MI), NCI-H1975 and NCI-H1299, (lung tumour; ATCC). Through experiments of cytotoxicity the capability of such compounds of inhibiting the cell growth was evaluated.
(§2) The cell lines were kept in culture in 75-cm^2 average flasks in atmosphere humidified with 5% CO2/95% air in the following media: DMEM supplemented with 10% FBS, 1% Kanamycin, 1% amino acids not essential for MDA-MB231 and MCF7; RPMI 10% FBS, 1% Kanamycin, 1% amino acids not essential for COV318, NCI-H1975 and NCI-H1299, with addition of 2 mM Sodium Pyruvate for PEO-1; RPMI 20% FBS, 1% Kanamycin, 1% amino acids not essential for HCT-15; LEIBOVITZ'S L15, 10% FBS, 1% Kanamycin, 1% amino acids not essential for SW948. All reagents were purchased at Sigma-Aldrich (St. Louis, MO) if not otherwise specified.
24 h after plating the compounds were added in quadruplicate at the following concentrations: C8 (6 μM; 12 μM; 24 μM; 48 μM; 96 μM; 192 μM) and C21 (8 μM; 16 μM; 32 μM; 64 μM; 128 μM; 256 μM). […] Similarly, the compound 21 inhibits the growth by 50% at 75±12 μM.

The subject of the next test is MCF-7. Put plainly: Cytotoxicity (ATPlite, 72 h) on MCF-7. The settings on record: Homo sapiens, MCF7, MCF-7 (breast), read-out: IC50 values (μM ± SEM). It counts as cell-based. How it is done: as §1, §2
MCF-7 were plated (40,000 cells/ml) in a 96-well black plate. […] 24 h after plating the compounds were added in quadruplicate at the following concentrations: C8 (6 μM; 12 μM; 24 μM; 48 μM; 96 μM; 192 μM) and C21 (8 μM; 16 μM; 32 μM; 64 μM; 128 μM; 256 μM).
A general note: ATP-based viability assays read luminescence as a measure of living cells.

A further test deals with HCT-15. Put plainly: Cytotoxicity (ATPlite, 72 h) on HCT-15. The settings on record: HCT-15 (colon), read-out: IC50 values (μM ± SEM). It counts as cell-based, human. How it is done:
as §1, §2
HCT-15 were plated (40,000 cells/ml) in a 96-well black plate. […] 24 h after plating the compounds were added in quadruplicate at the following concentrations: C8 (6 μM; 12 μM; 24 μM; 48 μM; 96 μM; 192 μM) and C21 (8 μM; 16 μM; 32 μM; 64 μM; 128 μM; 256 μM). […] The compound 21 has no inhibitory activity (IC50>100 μM), (Table 1).

The test system of another test is SW948. The test is described as follows: Cytotoxicity (ATPlite, 72 h) on SW948. It counts as cell-based. The settings on record: Homo sapiens, SW948 (colon), read-out: IC50 values (μM ± SEM). How it is done:
as §1, §2
(§3) 24 h after plating the compounds were added in quadruplicate at the following concentrations: C8 (6 μM; 12 μM; 24 μM; 48 μM; 96 μM; 192 μM) and C21 (8 μM; 16 μM; 32 μM; 64 μM; 128 μM; 256 μM).

For a further test, the system named is COV318. Put plainly: Cytotoxicity (ATPlite, 72 h) on COV318. The test is classed as cell-based. The settings on record: Homo sapiens, COV318 (ovary), read-out: IC50 values (μM ± SEM). How it is done: as §1, §2, §3
The test system of another test is NCI-H1975. The test is described as follows: Cytotoxicity (ATPlite, 72 h) on NCI-H1975. It counts as cell-based. The settings on record: Homo sapiens, NCI-H1975 (lung), read-out: IC50 values (μM ± SEM). How it is done: as §1, §2, §3
For a further test, the system named is NCI-H1299. Put plainly: Cytotoxicity (ATPlite, 72 h) on NCI-H1299. It counts as cell-based, human. The settings on record: NCI-H1299 (lung), read-out: IC50 values (μM ± SEM). How it is done: as §1, §2
24 h after plating the compounds were added in quadruplicate at the following concentrations: C8 (6 μM; 12 μM; 24 μM; 48 μM; 96 μM; 192 μM) and C21 (8 μM; 16 μM; 32 μM; 64 μM; 128 μM; 256 μM). […] The compound 21 has no inhibitory activity (IC50>100 μM), (Table 1).

The test system of test [4] is PEO-1. Put plainly: cells. The settings on record: Homo sapiens, PEO1, 72 h, read-out: IC50 (nM ± SEM).
Procedure: In order to prepare the cytotoxicity experiments the cells were trypsinized, counted with NEUBAUER chamber and plated in black plate having 96 wells per line (Perkinelmer). MDA-MB231, PEO-1, COV318, SW948, NCI-H1975 and NCI-H1299, were plated at 100,000 cells/ml, HCT-15 and MCF-7 at 40,000 cells/ml, In each well of the plate 200 μl of cell suspension were added. […] Parallelly, the single curves of each drug and of C8 were performed.
After 72 h from the addition of the compounds and/or drugs, the effect on the cell growth was evaluated by using the kit ATPlite (PerkinElmer) following the manufacturer's specifications. The luminescence signal was read at the instrument ENspire (PerkElmer). For each treated line, the % of inhibition of the growth with respect to the control and IC50 was calculated with software GraphPad Prism5 Software (San Diego, CA, USA). The combination index (CI) was calculated by using the program Compusyn (downloadable from www.combosyn.com), for the analysis of the combined effects of drugs based upon the equation of Chou-Talalay (Chou-Talalay, Adv Enzyme Regul 1984; 22:27-55). CI<1, =1, and >1 designates synergism, additive effect and antagonism, respectively.
PEO-1 were plated (100,000 cells/ml) in a 96-well black plate. In each well of the plate 200 μl of cell suspension were added.
The subject of test [5] is PEO-1. The test is described as follows: Cytotoxicity (ATPlite, 72 h) on PEO-1. It counts as cell-based. The settings on record: Homo sapiens, PEO1, 72 h, PEO-1 (ovary), read-out: IC50 values (μM ± SEM). How it is done:
as §1, §2
24 h after plating the compounds were added in quadruplicate at the following concentrations: C8 (6 μM; 12 μM; 24 μM; 48 μM; 96 μM; 192 μM) and C21 (8 μM; 16 μM; 32 μM; 64 μM; 128 μM; 256 μM). […]

SMILES strings stand for the structures. Like-named read-outs stand apart in the source and are kept apart here.

T1 sequence (Q9HC98 whole entry): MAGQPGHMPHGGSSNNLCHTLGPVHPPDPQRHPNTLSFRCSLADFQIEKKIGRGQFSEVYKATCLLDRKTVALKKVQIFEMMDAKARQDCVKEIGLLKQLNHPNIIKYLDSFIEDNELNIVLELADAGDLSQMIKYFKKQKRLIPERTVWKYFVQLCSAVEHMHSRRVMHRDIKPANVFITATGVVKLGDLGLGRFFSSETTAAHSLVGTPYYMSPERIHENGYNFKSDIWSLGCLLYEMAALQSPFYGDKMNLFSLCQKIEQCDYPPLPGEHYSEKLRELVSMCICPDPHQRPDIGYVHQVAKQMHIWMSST

For `N.N.[Cl][Pt][Cl]` [Cisplatin], the IC50 in the test with PEO-1 [1] was 7.9 ± 0.65 µM.

Turning to `CC1=C(C#N)C(O)=NC(=O)/C1=C\c1ccc(-c2ccccc2)o1` [C8, (5Z)-2-hydroxy-4-methyl-6-oxy-5-[(5-phenylfuran-2il)methylidene]-5,6-dihydropyridine-3-carbonitrile], the half-maximal inhibitory concentration (IC50) on NEK6 [2] is 3.4 ± 1.2 µM; on NEK6 [3], 13.8 µM; with MDA-MB-231 (Homo sapiens, MDA-MB-231, 72 h), under 100 µM; with MDA-MB-231, 65 ± 15 µM; in the test on MCF-7, over 100 µM; in the test with HCT-15 it was 98.5 ± 0.5 µM. The IC50 is under 100 µM with HCT-15 (Homo sapiens, HCT-15, 72 h); over 100 µM with SW948; over 100 µM in the test on COV318; over 100 µM in the test with NCI-H1975; under 100 µM with NCI-H1299 (Homo sapiens, NCI-H1299, 72 h); 87.8 ± 10 µM with NCI-H1299. Further, the “NEK6 activity inhibition in screening” value on NEK6 [2] is on record as “most active”.

Regarding `CC(=O)O[C@H]1C(=O)[C@@]2(C)[C@H]([C@H](OC(=O)c3ccccc3)[C@]3(O)C[C@H](OC(=O)[C@H](O)[C@@H](NC(=O)c4ccccc4)c4ccccc4)C(C)=C1C3(C)C)[C@]1(OC(C)=O)CO[C@@H]1C[C@@H]2O` [Paclitaxel], in the test with PEO-1 [4], the 50% inhibitory concentration (IC50) turned out to be 7 ± 0.001 nM.

As for `Nc1nc2c(c(=O)[nH]1)C(c1ccccc1)C1=C(N2)c2ccccc2C1=O` (stereo not drawn) [C21, 6-amino-2-phenyl-5,7,9-triazatetracycle[8.7.0.0^3,^8.0^11,^16]heptadeca 1(10),3(8),6,11,13,15 hexaene-4, 17-dione], the IC50 on NEK6 [2] is 2.6 ± 0.05 µM; at NEK6 [3] it was 49.8 µM; in the test on MDA-MB-231 (Homo sapiens, MDA-MB-231, 72 h) it was under 100 µM; in the test with MDA-MB-231 it was 75 ± 12 µM; in the test on MCF-7, over 100 µM; with HCT-15 (Homo sapiens, HCT-15, 72 h) it was over 100 µM. The IC50 in the test on SW948 is over 100 µM; with PEO-1 [5], over 100 µM; with COV318, over 100 µM; with NCI-H1975 it was over 100 µM; in the test with NCI-H1299 (Homo sapiens, NCI-H1299, 72 h), over 100 µM. Also, at NEK6 [2], the “NEK6 activity inhibition in screening” value is given as “most active”.

As usually defined, the IC50 is the concentration that gives 50% inhibition.

The values above are taken from patent US11820758B2, “NEK6 kinase inhibitors useful for the treatment of solid tumors” (CONSIGLIO NAZIONALE DELLE RICERCHE, priority 2018, dated 2023).
